From patent US12295962B2, “Polymorphic compounds and uses thereof” (AskAt Inc., priority 2018, dated 2025)

How the values were obtained:
Assay type in all cases: in vivo, BALB/c mice
[1] = system: CT-26 mouse colon adenocarcinoma; assay: Anti-tumor activity in the CT-26 colon adenocarcinoma mouse model (with anti-PD-1, 10 mice per cohort); conditions: for tumor growth kinetics: during the period of dosing, compared with vehicle treated mice, FIG. 22
Procedure: The antitumor activity of Compound B as a single agent and combined with a mouse anti-PD-1 antibody was evaluated in the CT-26 mouse colon adenocarcinoma model grown in BALB/c mice. Mice were inoculated subcutaneously in the right flank with 5×10^5 tumor cells.
When tumors reached an average size of 71 mm^3 (6 days after tumor cell inoculation) dosing was initiated. The dosing regimens in the 8 separate cohorts comprising 10 mice each are as follows: […]

[2] = system: CT-26 mouse colon adenocarcinoma; assay: Anti-tumor activity in the CT-26 model, additional experiment (with anti-PD1, 7 mice per cohort); conditions: during the period of dosing; single agents (Compound B 15 mg/kg BID p.o.; anti-PD1 10 mg/kg BIW i.p.); compared with vehicle group; FIG. 26
Procedure: (§1) The antitumor activity of Compound B as a single agent and combined with a mouse anti-PD1 antibody was evaluated in the CT-26 mouse colon adenocarcinoma model grown in BALB/c mice in an additional experiment. Mice were inoculated subcutaneously in the right flank with 5×10^5 tumor cells. When tumors reached an average size of 91 mm^3 dosing was initiated. The dosing regimens in the 4 separate cohorts comprising 7 mice each are as follows: […]

[3] = system: 4T1 mouse breast cancer; assay: Anti-tumor activity in the 4T1 breast cancer mouse model (with anti-CTLA4)
Procedure: The antitumor activity of Compound B (as described in example 14 above) as a single agent and combined with a mouse anti-CTLA4 antibody was evaluated in the 4T1 mouse breast cancer model grown in BALB/c mice. Mice were inoculated subcutaneously in the right flank with 3×10^5 tumor cells. When tumors reached an average size of 100 mm^3 (7 days after tumor cell inoculation) dosing was initiated.

[4] = system: 4T1 mouse breast cancer; assay: Anti-tumor activity in the 4T1 model, additional experiment (with anti-PD1, 7 mice per cohort); conditions: during the period of dosing; Compound B 15 mg/kg BID; compared with vehicle group and anti-PD1 dosed alone; FIG. 27
Procedure: as §1, with “4T1” for “CT-26”, “breast cancer” for “colon adenocarcinoma”, “3×10^5” for “5×10^5”, “97” for “91”

[5] = system: immune cells of CT-26 tumors; assay: Immune cell composition of CT-26 tumors by multi-color flow cytometry; conditions: after 7 days dosing, Compound B 15 mg/kg BID p.o., anti-PD1 10 mg/kg Q3D i.p., vs vehicle
Procedure: The immune cell composition of Compound B (as described in example 14 above) as a single agent and combined with a mouse anti-PD1 antibody was evaluated in the CT-26 mouse colon adenocarcinoma model grown in BALB/c mice. Mice were inoculated subcutaneously in the right flank with 5×10^5 tumor cells. When tumors reached an average size of 85 mm^3 dosing was initiated. The dosing regimens in the 4 separate cohorts comprising 10 mice each are listed as follows:
After dosing animals for 7 days, tumors were resected and used to prepare single cell suspensions. Live cells representing tumor and immune cells were stained with cocktails of antibodies targeting multiple immune cell markers (anti-CD45, anti-CD3, anti-CD4, anti-CD8, anti-CD25, anti-FoxP3, anti-PD-1, anti-CD11c) conjugated to different fluorescent tags. The stained cells were fixed in 4% paraformaldehyde and quantified using a multi-color flow cytometer (Fortessa). The data was analyzed with FloJo software.

[6] = 99 days after tumor inoculation, 10 mice per cohort

## C[C@H](NC(=O)c1cc(Cl)cnc1Oc1cccc(F)c1)c1ccc(C(=O)O)cc1 [Compound B]
[1]; [6]
  mice still alive: 1 out of 10
  mice tumor free: 1 out of 10
[1]; 15 mg/kg BID p.o.
  tumor growth kinetics: not notably different
[1]; 15 mg/kg QD p.o.
  tumor growth kinetics: not notably different
[2]
  tumor growth kinetics: less than that of the vehicle group
[3]; 47 days after tumor inoculation, 10 mice per group
  mice still alive: none
[3]; during the period of dosing, single agents (Compound B 15 mg/kg BID; anti-CTLA4), relative to vehicle treated mice, FIG. 24
  tumor growth kinetics: decreased relative to the vehicle treated mice
[4]
  tumor growth kinetics: less than that of the vehicle group and anti-PD1 when dosed alone
[5]; FIG. 28a
  regulatory T cells (CD45, CD4, FoxP3, CD25 positive) in tumor: significant decrease
[5]; FIG. 28b
  percentage of dendritic cells (CD45, CD11c positive) in tumor: increased percentage
[5]; FIG. 28c
  percentage of activated T cells (CD45, CD3, CD8; CD25 expression) in tumor: did not
